# Entries after “also recorded” stand apart in the source; their conditions may differ. Read-outs that look alike come from different tables or passages of the source.
# How the values were obtained:
# [1] = test system: tetrodotoxin-resistant sodium current (TTX-RINa); type: cell-based, rat; details: for Effect on epinephrine-induced potentiation of TTX-RINa: 1 μM epinephrine, propranolol 2 μM, phentolamine 5 μM, Rp-cAMPs 100 μM, BIM 100 μM
# [2] = test system: PGE2-induced hyperalgesia; assay: PGE2-induced mechanical hyperalgesia, paw withdrawal threshold; type: in vivo, rat; details: PGE2 100 ng; for Effect on PGE2-induced hyperalgesia: rat hindpaw, mechanical stimulus
# Experimental: The roles of PKC, protein kinase A (“PKA”) and the μ-opioid receptor in mediating epinephrine-induced hyperalgesia were assessed by measuring the effects of: Rp-adenosine 3′, 5′-cyclic monophosphate (“Rp-cAMPs”) and WIPTIDE, both inhibitors of PKA; SQ22536, an inhibitor of adenylyl cyclase, an enzyme activated by PKA; bisindolymaleimide (“BIM”), a nonselective inhibitor of PKC isozymes; and [D-Ala^2, N-Me-Phe^4, Gly^5-ol]-enkephalin (“DAMGO”), μ-opioid receptor agonist. The dose for each inhibitor was 1 μg, except for WIPTIDE, which was administered in a 100 ng dose. DAMGO was co-injected with epinephrine whereas the other inhibitors were applied 15 minutes prior to epinephrine injection.
# For mechanical nociceptive testing, the nociceptive flexion reflex was quantified using an Ugo Basile analgesymeter that applies a constantly increasing force measured in grams (Stoelting, Chicago, Ill.; K. O. Aley, J. D. Levine, J. Neurosci. 17, 8018-23 (1997)). The mean basal mechanical threshold for rats used in these experiments was 105.3+/−2.8 grams. The effects of hyperalgesia-inducing agents epinephrine (100 ng) and PGE2 (100 ng) on mechanical nociceptive thresholds were determined by measuring paw withdrawal frequencies at 15, 20, and 25 minutes after administration of the hyperalgesic agent and then calculating the mean of these three readings.
# [3] = test system: isoproterenol-induced hyperalgesia; assay: Isoproterenol-induced mechanical hyperalgesia, paw withdrawal threshold; type: in vivo, rat; details: for Effect on isoproterenol-induced hyperalgesia: rat hindpaw, intradermal
# [4] = test system: diabetes-induced hyperalgesia; assay: Streptozotocin diabetes-induced hyperalgesia, mechanical stimuli; type: in vivo, rat; details: 1 μg intradermal after sterile water, four weeks after streptozotocin 70 mg/kg
# Experimental: Persons with uncontrolled or poorly controlled diabetes frequently experience hyperalgesia. The role of PKCε in diabetic neuropathy was examined in a model of diabetes in which male Sprague-Dawley rats receive subcutaneous injection of streptozotocin (70 mg/kg), a pancreatic β-cell toxin. These rats display hyperglycemia and glucosuria within 24 hours after the injection and show decreased nociceptive thresholds in response to mechanical stimuli administered by Ugo Basile analgesymeter in the hind paw after one week (Ahlgren, S. C. et al, J. Neurophysiology, 68, 2077-2085 (1992); Ahlgren, S. C. and Levine, J. D., Neuroscience 52, 1049-1055 (1993)). Four weeks after the streptozotocin injection, each rat received no treatment (n=8) or an intradermal injection of sterile water followed by a intradermal injections of (1) 1 μg bisindolymaleimide, a protein kinase C inhibitor (n=4; labeled “BIM” on FIG. 12B), (2) 1 μg εV1-2, a PKCε inhibitory peptide (n=8; labeled “PKCεI” on FIG. 12B), or (3) 1 μg S-VεV1-2, a scrambled version of the εV1-2 peptide (n=4; labeled “PCKεI SCR” on FIG. 12B) and were subsequently exposed to mechanical stimuli.
# [5] = test system: epinephrine-induced hyperalgesia; assay: Epinephrine-induced mechanical hyperalgesia, paw withdrawal threshold (Ugo Basile Analgesimeter); type: in vivo, rat; details: for Percentage decrease in nociceptive threshold in response to epinephrine: epinephrine 100 ng, DAMGO, SQ22536, BIM, Rp-cAMPs 1 μg, WIPTIDE 0.1 μg, larger value = more hyperalgesia; for Effect on epinephrine-induced hyperalgesia: rat hindpaw, intradermal, mechanical stimulus
# Experimental: The roles of PKC, protein kinase A (“PKA”) and the μ-opioid receptor in mediating epinephrine-induced hyperalgesia were assessed by measuring the effects of: Rp-adenosine 3′, 5′-cyclic monophosphate (“Rp-cAMPs”) and WIPTIDE, both inhibitors of PKA; SQ22536, an inhibitor of adenylyl cyclase, an enzyme activated by PKA; bisindolymaleimide (“BIM”), a nonselective inhibitor of PKC isozymes; and [D-Ala^2, N-Me-Phe^4, Gly^5-ol]-enkephalin (“DAMGO”), μ-opioid receptor agonist. The dose for each inhibitor was 1 μg, except for WIPTIDE, which was administered in a 100 ng dose.
# [6] = test system: prolonged PGE2-induced hyperalgesia; assay: Prolonged hyperalgesia in carrageenan-sensitized rats (chronic inflammatory pain model); type: in vivo, rat; details: 1 μg at the same time as carrageenan; PGE2 72 or more hours later
# Excerpt: In order to investigate the role, if any, of PKCε in chronic inflammatory pain, the following model system for chronic inflammatory pain was developed. Rats received intradermal hind paw injections of carrageenan, an inflammatory agent. […] This was considered an acute response to the carrageenan-induced inflammation. Although administration of Prostaglandin E2 (“PGE2”), 5-hydroxytryptamine (“5-HT,” serotonin) or CGS-21680 (an adenosine A2-selective receptor agonist) normally causes untreated rats (that is, rats that have not received carrageenan injections) to experience hyperalgesia lasting up to 6 hours, the hyperalgesia experienced by carrageenan-sensitized rats following administration of any one of these substances lasted up to 24 hours.
# The prolonged PGE2-induced hyperalgesia normally seen in carrageenan-sensitized rats was inhibited by administration of BIM or εV1-2.
# To examine whether protein kinase C modulates the processes by which a brief inflammatory event causes prolonged hyperalgesia many days later, rats received carrageenan and 1 μg BIM injections at the same time. Hyperalgesia was measured 72 hours later, when the rats were treated PGE2. […]
# [7] = test system: carrageenan-induced hyperalgesia; assay: Carrageenan-induced acute hyperalgesia, mechanical stimuli; type: in vivo, rat; details: 1 μg injected at the same time as carrageenan
# Experimental: The acetic acid writhing experiments reported in Example 3 indicate that PKCε contributes to inflammatory pain. To investigate whether PKCε mediates hyperalgesia induced by other inflammatory agents, rats received intradermal 10 μl injections of a 1% solution of carrageenan, a potent irritant (Ferreira, S. H. et al, Nature 334, 698-700 (1988)) and three and a half hours later, the rats received no treatment (n=12; labeled “Car-4” on FIG. 13) or intradermal injections of sterile water followed by intradermal injections of either 1 μg εV1-2, a PKCε inhibitory peptide (n=6; labeled “εV” on FIG. 13), or 1 μg S-VεV1-2, a scrambled version of the εV1-2 peptide (n=6; labeled “S-εV” on FIG. 13).
# To examine whether protein kinase C modulates the processes by which a brief inflammatory event causes prolonged hyperalgesia many days later, rats received carrageenan and 1 μg BIM injections at the same time. Hyperalgesia was measured 72 hours later, when the rats were treated PGE2. […] Therefore, administration of an inhibitor of PKC either at approximately the same time as the inflammatory agent giving rise to chronic, prolonged hyperalgesia or at about the same time as the hyperalgesia-inducing stimulus can lessen such chronic hyperalgesia.
# [8] = test system: wild-type mice; assay: von Frey hair paw withdrawal frequency in mice; type: in vivo, mouse; details: 100 ng intraplantar, wild-type mice, 4, 6.9 or 14.8 grams
# Experimental: Mechanical, thermal and chemical nociception were evaluated in wild-type and PKCε-mutant mice. For both wild-type (n=8) and PKCε-mutant (n=8) mice, the basal mechanical nociceptive threshold was measured as the frequency at which mice withdrew their paws after being poked in the hindpaw with a von Frey Hair (“VFH”; Stoelting Co.) applying a force of 4, 6.9 or 14.8 grams.
# [9] = test system: PGE2-induced hyperalgesia; details: PGE2 100 ng; inhibitor 1 μg; data from Khasar 1995 or Taiwo and Levine 1991; cited from earlier work
# [10] = Rotorod analysis of motor deficits; type: in vivo, rat; details: vincristine 100 μg/kg intravenously daily
# Experimental: (§1) Humans undergoing chemotherapy frequently experience hyperalgesia. Vincristine is a chemotherapeutic drug known to cause such hyperalgesia, and a rat model of vincristine-induced hyperalgesia was established as follows. Vincristine (100 μg/kg in saline; Sigma Chemical Catalog) was administered intravenously daily to each of 32 rats over a period of two weeks.
# [11] = test system: vincristine-induced hyperalgesia; assay: Vincristine-induced hyperalgesia, mechanical stimuli (Ugo Basile analgesymeter); type: in vivo, rat; details: vincristine 100 μg/kg intravenously daily, after the second day
# Experimental: as §1
# To determine whether administration of an inhibitor of PKCε would lessen vincristine-induced hyperalgesia in the rat model described above, on the 13th day of vincristine treatment, rats received no treatment (n=16) or intradermal injections of sterile water followed by intradermal injections of either 1 μg εV1-2, a PKCε inhibitory peptide (n=8; labeled “PKCεI” on FIG. 12A), or 1 μg S-VεV1-2, a scrambled version of the εV1-2 peptide (n=8; labeled “PCKεI SCR” on FIG. 12A), 20-30 minutes before administration of a mechanical stimulus.
# [12] = similar dose, normal rat, earlier studies; cited from earlier work
# [13] = test system: formalin-induced hyperalgesia; details: earlier studies; cited from earlier work
# [14] = test system: PGE2-induced hyperalgesia; details: earlier studies; cited from earlier work
# [15] = test system: small diameter DRG neurons; assay: Current-clamp (perforated-patch whole-cell) excitability of cultured DRG neurons; type: cell-based, rat
# [16] = after 1 μg epinephrine injection
# [17] = 10 μM propranolol 30 seconds prior to and with 1 μM epinephrine
molecule,measurement,setting,value
"CN(C)CCCn1cc(C2=C(c3c[nH]c4ccccc34)C(=O)NC2=O)c2ccccc21 [BIM, bisindolymaleimide I]",Effect on epinephrine-induced potentiation of TTX-RINa,[1],significantly decreased
same,Percentage decrease in nociceptive threshold in response to PGE2,"[2]; BIM 1 μg, WIPTIDE 0.1 μg",33.4 ± 4.1%
same,Effect on PGE2-induced hyperalgesia,[2],no effect
same,Percentage decrease in nociceptive threshold in response to isoproterenol,"[3]; isoproterenol 100 ng, BIM 1 μg, WIPTIDE 0.1 μg",7.1 ± 2.4 %
same,Effect on isoproterenol-induced hyperalgesia,[3],significantly attenuated
same,Effect on diabetes-induced decrease in nociceptive threshold,[4],somewhat greater reduction in the percentage decrease in nociceptive threshold than PKCε I; also recorded: markedly reduced
same,Percentage decrease in nociceptive threshold in response to epinephrine,[5],4.6 ± 2.1 %
same,Effect on epinephrine-induced hyperalgesia,[5],inhibits epinephrine-induced hyperalgesia to a similar extent as εV1-2
same,Effect on prolonged hyperalgesia on PGE2 treatment after carrageenan,[6],attenuated
same,Effect on acute hyperalgesia induced by carrageenan,[7],attenuated
"CNC[C@H](O)c1ccc(O)c(O)c1 [Epinephrine, epinephrine]",Effect on TTX-RINa,[1]; epinephrine 1 μM,marked potentiation
same,Percent-withdrawal response to VFH stimulus,[8],dramatically increased
same,Duration of hyperalgesia,[5]; [16],approximately 2 hours
same,Onset latency of hyperalgesia (significant),[5]; [16],2 min
same,Time to peak hyperalgesic effect,[5]; [16],≤ 5 min
same,Effect on paw withdrawal threshold,"[5]; intradermal 1 ng to 1 μg, dorsal hindpaw",dose-dependent decrease
"CC(C)NCC(O)c1ccc(O)c(O)c1 (stereo not shown) [Isoproterenol, isoproterenol]",Hyperalgesia produced in the absence of epinephrine,[3]; intradermal injection,dose-dependent hyperalgesia
same,Percentage decrease in nociceptive threshold in response to isoproterenol alone,[3]; isoproterenol 100 ng alone,25.8 ± 0.9%
"CCCCC[C@H](O)/C=C/[C@H]1[C@H](O)CC(=O)[C@@H]1C/C=C\CCCC(=O)O [PGE2, prostaglandin E2]",Percent-withdrawal response to VFH stimulus,[8],dramatically increased
"Nc1ncnc2c1ncn2[C@@H]1O[C@@H]2CO[P@@](O)(=S)O[C@H]2[C@H]1O [Rp-cAMPs, Rp-adenosine 3′, 5′-cyclic monophosphate]",Effect on epinephrine-induced potentiation of TTX-RINa,[1],abolished
Nc1ncnc2c1ncn2C1CCCO1 (stereo not shown) [SQ22536],Percentage decrease in nociceptive threshold in response to PGE2,[9],10.0 ± 2.9 %
same,Percentage decrease in nociceptive threshold in response to epinephrine,[5],9.5 ± 2.4 %
CC[C@]1(O)C[C@H]2CN(CCc3c([nH]c4ccccc34)[C@@](C(=O)OC)(c3cc4c(cc3OC)N(C=O)[C@H]3[C@@](O)(C(=O)OC)[C@H](OC(C)=O)[C@]5(CC)C=CCN6CC[C@]43[C@@H]65)C2)C1 [Vincristine],Motor deficits,[10],did not show any significant motor deficits
same,Effect on mechanical nociceptive thresholds,[11],acute dose-dependent decrease
COc1ccc2c(c1)c(CC(=O)O)c(C)n2C(=O)c1ccc(Cl)cc1 [indomethacin],Effect on epinephrine-induced hyperalgesia,[5],Neither indomethacin treatment nor sympathectomy had any effect
Cc1ccc(N(CC2=NCCN2)c2cccc(O)c2)cc1 [phentolamine],Effect on basal paw threshold,[12],no effect
same,Effect on formalin-induced hyperalgesia,[13],significantly reversed
same,Effect on the ability of rolipram to prolong PGE2-induced hyperalgesia,[14],inhibited
same,Effect on epinephrine-induced hyperalgesia,[5],did not significantly affect
CC(C)NCC(O)COc1cccc2ccccc12 (stereo not shown) [propranolol],Effect on epinephrine-induced potentiation of TTX-RINa,[1],eliminated this potentiation
same,Effect on isoproterenol-induced hyperalgesia,[3],significantly attenuated
same,Effect on epinephrine-induced hyperalgesia,[5],significantly attenuated
same,First-spike latency after epinephrine addition,[15]; [17],233 ± 10 ms
same,Spike number after epinephrine addition,[15]; [17],1.3±0.2
same,Effect on epinephrine-induced increase in spike number and decrease in first-spike latency,"[15]; 10 μM propranolol, 1 μM epinephrine",abolished
WIPTIDE,Effect on PGE2-induced hyperalgesia,[2],significantly attenuated
same,Effect on isoproterenol-induced hyperalgesia,[3],almost completely abolished
